Results: publication PMC5983823, “Screening of Natural Product Derivatives Identifies Two Structurally Related Flavonoids as Potent Quorum Sensing Inhibitors against Gram-Negative Bacteria” (International Journal of Molecular Sciences, 2018)

Tests used:
[1] = test system: P. aeruginosa PAO1; experiment: Crystal violet staining assay, transition from microcolonies to fully formed biofilms; type: cell-based; details: Pseudomonas aeruginosa, P. aeruginosa PAO1, mean ± SD, read-out: Inhibitory activity on the transition from microcolonies to fully formed biofilms
Procedure: (§1) Crystal violet-based biomass staining assay was performed to assess the effects of the compounds on the transition from microcolonies to fully formed as recently described in [26] with minor modifications. Briefly, diluted cultures of exponentially grown P. aeruginosa ATCC 9027, ATCC 15442 and PA01, and E. coli K-12 (10^6 CFU/mL) were added to the 96-microtiter well plates (200 µL per well) to form microcolonies for two hours (37 °C). At the end of this period, bacterial suspensions were removed, compounds at a final concentration of 400 µM and fresh LB media were added, and plates were incubated at 37 °C, with shaking (200 rpm) for additional 22 h. After the incubation period, media was discarded and the biofilms were washed once with sterile Milli-Q (MQ)-water. Biomass was fixed with methanol for 15 min followed by staining with 0.23% (v/v) crystal violet (Sigma-Aldrich, Munich, Germany) solution prepared in MQ-water (200 µL per well) for 5 min. Thereafter, wells were washed twice with MQ-water and 200 µL of 96% ethanol was added to the wells. Absorbance was measured at 595 nm using Varioskan Flash after 1 h.

[2] = test system: E. coli K-12; experiment: as above; type: cell-based; details: Escherichia coli, K12, E. coli K-12, mean ± SD, read-out: Inhibitory activity on the transition from microcolonies to fully formed biofilms
Procedure: as §1

[3] = test system: P. aeruginosa ATCC 9027; experiment: as above; type: cell-based; details: Pseudomonas aeruginosa, ATCC9027, P. aeruginosa ATCC 9027, mean ± SD, read-out: Inhibitory activity on the transition from microcolonies to fully formed biofilms
Procedure: as §1

[4] = test system: P. aeruginosa ATCC 15422; experiment: as above; type: cell-based; details: Pseudomonas aeruginosa, ATCC15422, read-out: Inhibitory activity on the transition from microcolonies to fully formed biofilms
Procedure: as §1

[5] = test system: P. aeruginosa (ATCC 9027, ATCC 15422 and PA01); experiment: Viable plate counts (bacterial growth); type: cell-based, Pseudomonas aeruginosa; details: 100 and 400 µM, 24 h
Procedure: (§2) Effects of the leads on bacterial growth were assessed by performing viable plate counts. Compounds at final concentrations of 100 and 400 µM and cultures of P. aeruginosa (ATCC 9027, ATCC 15422 and PA01) and E. coli K-12 (10^6 CFU/mL) were simultaneously added to the 96-microtiter well plates (200 µL per well). Untreated bacteria were included in control wells. The plates were incubated at 37 °C, without shaking for 24 h. At the end of this period, bacterial suspensions were transferred from the wells to Eppendorf tubes, and the tubes were sonicated for 10 min (25 °C, 35 kHz, Sonorex Digitec water bath (Bandelin, Zurich, Switzerland)). Each suspension was serially diluted in LB and plated on LB agar. The number of viable bacteria in each test concentration was counted after overnight incubation at 37 °C. Results were expressed as CFU/mL.

[6] = test system: E. coli K-12; experiment: Viable plate counts (bacterial growth); type: cell-based, Escherichia coli; details: 100 and 400 µM, 24 h
Procedure: as §2

[7] = test system: C. violaceum ATCC 31532; experiment: Violacein extraction assay (QS-mediated violacein production); type: cell-based, Chromobacterium violaceum; details: Chromobacterium violaceum; for inhibition at 400 µM: ATCC31532, 24 h, primary screening, 24 h, C. violaceum ATCC 31532, read-out: Inhibition-% of violacein production; for IC50: ATCC31532, C. violaceum ATCC 31532, 15 concentration points, read-out: IC50 of violacein production
Procedure: The initial screening of compound library was conducted using two strains of C. violaceum as model bacterium, and two assays (violacein extraction and resazurin staining) in parallel as recently optimized in [26]. For the screening assays, overnight cultures of C. violaceum were diluted in LB broth supplemented with yeast extract (LBY) (0.1% w/v, Sigma Aldrich, St. Louis, MO, USA). Culture of C. violaceum CV026 was further supplemented with 0.5 µM N-(β-ketocaproyl)-L-Homoserine lactone (3-O-C6-(L)-HSL, Cayman chemicals, Ann Arbor, MI, USA) to induce the violacein production. Bacteria (10^6 CFU/mL) was exposed to compounds (400 µM) in a total volume of 200 µL in 96-microtiter well plates (Nunc, Roskilde, Denmark), and incubated at 27 °C, with shaking at 200 rpm for 24 h. DMSO was added in untreated control wells and bacteria-free wells with only LBY were included controls. Additionally, autoinducer-free wells containing only bacteria were included in C. violaceum CV026 plates. Plates were prepared in duplicates. Quercetin dihydrate (Carl Roth GmbH, Karlsruhe, Germany) at 400 µM was used as positive control in violacein extraction assay, and azithromycin (Cayman chemicals, Ann Arbor, MI, USA) at 10 µM in viability assay. Both control compounds were prepared in DMSO. DMSO concentration was 2.5% throughout the experiments.
After incubation period of 24 h, plates were centrifuged (Allegra™ X-12R Benchtop centrifuge, Beckman Coulter Inc., Fullerton, CA, USA) at 3000 rpm for 10 min to precipitate the violacein. Supernatants were discarded from the wells by pipetting, and pellets were re-suspended in 200 μL of 96% ethanol by scraping and mixing followed by centrifugation (3000 rpm, 10 min). Thereafter, 100 μL of supernatants were transferred to sterile 96-microtiter well plates, and violacein was quantified by reading the optical density at 595 nm using Varioskan Flash. Inhibition of violacein production was expressed as inhibition percentages of the untreated biofilms (Equation (1)):Inhibition-% = [(untreated control OD595 − sample OD595)/(untreated control OD595 − media control OD595)] × 100%(1) in which untreated control = C. violaceum + DMSO, media control = LBY, and sample = C. violaceum treated with a compound. Later on, violacein extraction assay was also utilized for the determination of half inhibitory concentrations of the compounds.

[8] = test system: P. aeruginosa PAO1; experiment: Swarming motility assay; type: cell-based; details: Pseudomonas aeruginosa, PAO1, read-out: Inhibition of swarming motility
Procedure: Assays were performed according to the protocols previously described in [30, 74] with some modifications. The swarming agar was prepared in MQ-water consisting of 0.3% (w/v) agar, 1% (w/v) peptone, 0.5% (w/v) yeast extract and 0.5% (w/v) sodium chloride, and the swimming agar similarly but without yeast extract. Compounds at a final concentration of 400 µM and 100 µM were pre-mixed with 5 mL of agar, and poured over solidified LB agar plates (10 mL/petri dish) as overlays. The plates were allowed to dry at 30 °C for three hours followed by point inoculation with 2 µL of P. aeruginosa PAO1 (~10^8 CFU/mL) and incubation at 37 °C for 18 h. Quercetin was used as a control. Diameters of the swarming and swimming zones were measured after the incubation periods.

SMILES	inhibition at 400 µM [1]	inhibition at 400 µM [2]	inhibition at 400 µM [3]	inhibition at 400 µM [4]	Bactericidal activity by viable plate counts [5]	Bactericidal activity by viable plate counts [6]	inhibition at 400 µM [7]	IC50 [7]	inhibition at 400 µM [8]
CCC(=O)Oc1c(-c2ccccc2Cl)oc2ccccc2c1=O [Compound 2117, 2-(2-chlorophenyl)-4-oxochromen-3-yl propanoate]	42.3 ± 12.4%	51.3 ± 6.9%	27.2 ± 6%	11.2 ± 1.8%	Neither of the leads displayed any bactericidal activity	Neither of the leads displayed any bactericidal activity	102%	9.6 µM	72.1%
CCCCCCCCCC(=O)Oc1c(-c2ccc(OC)cc2)oc2ccccc2c1=O [Compound 2896, 2-(4-methoxyphenyl)-4-oxochromen-3-yl decanoate]	11.6 ± 11.1%	14.3 ± 10.1%	22.5 ± 3.2%	28.1 ± 15.1%	Neither of the leads displayed any bactericidal activity	Neither of the leads displayed any bactericidal activity	94.5%	13.9 µM	69.8%
